This is an account of results in PubChem BioAssay AID179 (DTP/NCI, 2004).

Usually EC50 stands for the concentration at which the effect is half-maximal. As a reminder, the IC50 is the concentration that gives 50% inhibition.

For this assay, the system named is CEM cells HIV-1 protection, formazan growth assay. Kind of assay: NCI AIDS Antiviral Assay. As to conditions: for IC50: measured here: growth of uninfected CEM cells. The method, boiled down: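 Screen of anti-HIV-1 activity in human CEM cells using a formazan-based growth measurement at five drug concentrations. Hits with 50% or greater protection were repeated, and confirmation required reproducible complete protection.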

Active and inactive are the calls of the source.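 Rule for the calls: active = compounds giving half or more protection of infected cells from virus-caused growth loss, again on retest; inactive = the rest.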

With `CCOP(=O)(OCC)C(NC(=O)OCC(Cl)(Cl)Cl)n1nnc(C(=O)OC)c1C(=O)OC` (configuration not stated), the EC50 was greater than 200 µM and the IC50 is greater than 200 µM.

With `O=c1sc2c(s1)SSSSS2`, the EC50 is greater than 50.1 µM and the IC50 worked out at 15.8 µM.

As for `O=C(c1nc2ccccc2[nH]c1=O)C(O)c1ccccc1` (configuration not stated), the EC50 is greater than 468 µM and the IC50 came to 151 µM.

For the compound `COc1ccc2nc3cc(Cl)ccc3c(NCCCN(C)CCCNc3ccc4ncn5c6ccccc6c(=O)c3c45)c2c1`, the EC50 was greater than 0.251 µM and the IC50 is 0.166 µM.

Take `Cc1ccc(C=C(C(=O)O)C(=O)O)o1`: the EC50 is 145 µM and the IC50 was greater than 200 µM.

Regarding `N#CC(C#N)C(c1ccccc1)c1ccccc1`, the result was inactive.

Regarding `Nc1ccccc1S(=O)c1ccccc1` (configuration not stated), the EC50 was greater than 275 µM and the IC50 was greater than 275 µM.

On to `CCC[C@H]1[C@H](CCC)[C@@]2(OC(=O)C3=C2CCC=C3)[C@]12OC(=O)C1=C2CCC=C1`, for which the EC50 is greater than 107 µM and the IC50 is 20 µM.

With `CC[N+](CC)=c1ccc2nc3c(cc(N)c4ccccc43)oc-2c1`, the EC50 is greater than 200 µM and the IC50 turned out to be 3.8 µM.

In the case of `O=C1OC(=O)N2CSCC12` (configuration not stated), the EC50 is greater than 1580 µM and the IC50 is greater than 1580 µM.

On to `COc1ccc(-c2sc(/N=C/c3ccc(-c4ccccc4)cc3)c(C#N)c2C)cc1OC`, for which the EC50 is greater than 200 µM and the IC50 stood at 30.2 µM.

Turning to `Cc1cc(-c2ccc(N=Nc3c(S(=O)(=O)O)cc4cc(S(=O)(=O)O)cc(N)c4c3O)c(C)c2)ccc1N=Nc1c(S(=O)(=O)O)cc2cc(S(=O)(=O)O)cc(N)c2c1O`, the EC50 is 34.7 µM and the IC50 was determined as 132 µM.

Regarding `COc1ccc2nc3cccc([N+](=O)[O-])c3c(NCCNCCO)c2c1`, the EC50 was greater than 0.2 µM and the IC50 was 0.112 µM.

As for `CC(C)(C)NC(=O)C12C3C4C1C1C2C3C41I` (configuration not stated), the EC50 was greater than 100 µM and the IC50 is greater than 100 µM.

As to `CC1=C(c2nc3ccccc3s2)C(=O)OC1(C)C`, the EC50 is greater than 182 µM and the half-maximal inhibitory concentration (IC50) came out at 123 µM.

As to `N#CC(C#N)=Cc1ccc(C=C(C#N)C#N)cc1`, the EC50 is greater than 200 µM and the IC50 is 8.51 µM.

On to `C/C(=N/NC(=S)Nc1ccccc1Cl)c1ccccn1`, for which the EC50 is greater than 0.2 µM and the IC50 stood at 0.0372 µM.

Take `CC(=C\c1ccccc1)/C=C1/NC(=O)NC1=O`: the EC50 is greater than 200 µM and the IC50 turned out to be 129 µM.

Turning to `Cc1cc2nc3c(C(OC4OC(CO)C(O)C(O)C4O)C(O)CO)nn(-c4ccccc4)c3nc2cc1C` (configuration not stated), the outcome was inactive.

For `COc1ccc2nc3cc([N+](=O)[O-])ccc3c(Nc3ccc(S(=O)(=O)NC(C)=O)cc3)c2c1`, the EC50 was greater than 200 µM and the IC50 is 75.9 µM.

As to `C=CCC1(O)C(CO[Si](C)(C)C(C)(C)C)OC(n2ccc(=O)[nH]c2=O)C1O[Si](C)(C)C(C)(C)C` (configuration not stated), the EC50 is greater than 200 µM and the IC50 turned out to be 10.2 µM.

With `COC1=C(Br)[C@H](O)[C@@]2(C=C1Br)CC(C(=O)NCCCCCN=C(N)N)=NO2`, the EC50 was greater than 10 µM and the IC50 is greater than 10 µM.

Consider `CS(=O)(=O)NNS(=O)(=O)c1ccc(Br)cc1`, for which the EC50 was greater than 398 µM and the IC50 was greater than 398 µM.

Regarding `COc1c(OC)c(OC)c2c(=O)c(OC)c(-c3ccc4c(c3)OCO4)oc2c1OC`, the EC50 is greater than 200 µM and the 50% inhibitory concentration (IC50) is greater than 200 µM.

As for `C=CC1=CC2(O[Si](C(C)C)(C(C)C)C(C)C)CCC1C(COCc1ccccc1)C2C(=O)O` (configuration not stated), the EC50 was greater than 28.8 µM and the IC50 is 20 µM.

For the compound `Cc1c2c(n3c(nc4ccccc43)c1C#N)N(c1ccc(F)cc1)CC2`, the EC50 is greater than 200 µM and the IC50 was greater than 200 µM.

`Cc1c(C(=O)O)n2c(=S)[nH]nc2c2ccccc12`: the EC50 is greater than 200 µM and the IC50 was greater than 200 µM.

As for `COC(=O)/C(=C/CC(N=C(c1ccccc1)c1ccccc1)C(=O)OC)N=C(c1ccccc1)c1ccccc1` (configuration not stated), the EC50 was greater than 9.77 µM and the IC50 is greater than 9.77 µM.

Turning to `Cc1cn(C2CC(N=[N+]=[N-])C(COC(=O)C3OC(C)(C)O[C@@]34CC[C@H]3[C@@H]5CCC6=CC(=O)C=C[C@]6(C)[C@H]5[C@@H](O)C[C@@]34C)O2)c(=O)[nH]c1=O` (some centres not stated), the EC50 is 0.0589 µM and the IC50 is 11.5 µM.

With `O=C1C=C2C3c4c(cc(O)cc4C4c5c(O)cc6c(c5[C@@H]5C(c7ccc(O)cc7)C1C(=O)[C@@]25[C@@H]4c1ccc(O)cc1)[C@@H](c1cc(O)cc(O)c1)[C@H](c1ccc(O)cc1)O6)O[C@H]3c1ccc(O)cc1` (some centres not stated), the EC50 was greater than 15.8 µM and the IC50 was determined as 10.7 µM.

Regarding `C(/C=C/Nc1ccc(-c2ccccc2)cc1)=Nc1ccc(-c2ccccc2)cc1`, the EC50 is greater than 200 µM and the IC50 is greater than 200 µM.

Regarding `CCC12C=CCN3CC[C@@]4(c5ccc(OC)cc5N(C)[C@H]4[C@@](O)(C(=O)OC)[C@@H]1OC(C)=O)C32` (some centres not stated), the outcome was inactive.

Turning to `[N-]=[N+]=CC(=O)C1CCN(c2ccccc2)C1=O` (configuration not stated), the EC50 is greater than 200 µM and the IC50 is greater than 200 µM.

In the case of `CC1CCc2[nH]nc(CC3CC(=O)NC(=O)C3)c2C1` (configuration not stated), the EC50 is greater than 200 µM and the IC50 is greater than 200 µM.

Turning to `COc1cccc(C2=NC(C(C)C)CO2)c1` (configuration not stated), the EC50 is greater than 229 µM and the IC50 was greater than 229 µM.

`Cc1ccc2nc(C=Nc3ccccc3Cl)cc(C)c2c1`: the EC50 is greater than 200 µM and the IC50 worked out at 10.5 µM.

As for `CCN1CC2(C)CC[C@@H](OC)C34[C@@H]2[C@H](OC(C)=O)C2(OCO[C@@]25C[C@H](OC)C2C[C@]3(O)[C@@H]5[C@H]2O)[C@H]14`, the result was inactive.

In the case of `CC(=N\N=C\c1ccccn1)/C(C)=N/N=C(C)/C(C)=N/N=C(C)/C(C)=N/N=C/c1ccccn1`, the outcome was inactive.

Turning to `Cc1nn2c(=O)c3c([N+](=O)[O-])c(C)nn3c(=O)c2c1[N+](=O)[O-]`, the EC50 was greater than 562 µM and the concentration for half-maximal inhibition (IC50) is greater than 562 µM.

For `CCN1CN(c2ccccc2)C2(CCN(CC3COc4ccccc4O3)CC2)C1=O` (configuration not stated), the EC50 is greater than 200 µM and the IC50 came out at 115 µM.

Regarding `COC(=O)CC1(C(=O)OC)C2CCCN2C2(C#N)c3ccccc3CCC12Br` (configuration not stated), the EC50 is greater than 41.7 µM and the IC50 was greater than 41.7 µM.

In the case of `CCN1CCC(O)(c2ccc(Cl)cc2)C(C(=O)c2ccc(Cl)cc2)C1` (configuration not stated), the result was inactive.

`COc1nc(C)nc2sc3c(c12)CCCC3`: the EC50 was greater than 100 µM and the 50% inhibitory concentration (IC50) was greater than 100 µM.

Regarding `CCOC(=O)c1cc(C)nc2c1c(=O)n(-c1ccccc1)c(=O)n2CCCCN1CCN(c2ccccc2)CC1`, the EC50 was greater than 200 µM and the IC50 is greater than 200 µM.

Take `O=C(Cc1ccccc1)NN1C(=O)/C(=C\c2ccc(O)cc2)SC1=Nc1ccccc1`: the EC50 was greater than 31.6 µM and the IC50 was greater than 31.6 µM.

Turning to `CC(=O)NC(CCCCNC(=O)OCc1ccccc1)C(=O)O` (configuration not stated), the EC50 was greater than 776 µM and the IC50 is greater than 776 µM.

As for `O=c1oc2ccccc2cc1Cl`, the EC50 was greater than 145 µM and the IC50 was greater than 145 µM.

In the case of `CCOC(=O)c1ccc(CSc2ccc(Cl)cc2)cc1`, the EC50 was greater than 4.68 µM and the IC50 is greater than 4.68 µM.

For the compound `Nc1c(S(=O)(=O)O)cc(Nc2ccc(S(=O)(=O)O)c(Nc3nc(Cl)nc(Cl)n3)c2)c2c1C(=O)c1ccccc1C2=O`, the EC50 was greater than 200 µM and the half-inhibitory concentration (IC50) was greater than 200 µM.
